4 compounds from US5506264A, “Zinc tranexamate compounds” (Zaidan Hojin Seisan Kaihatsu Kaguki Kenkyusho, priority 1992, dated 1996) can be followed below.

Structures can show the parent of a compound that is named as a salt.

The subject of data set [1] is Stomach injury with hydrochloric acid/ethanol. Kind of data set: Anti-ulcer test (1): stomach injury with hydrochloric acid/ethanol. In kind it is in vivo, Male rats of Sprague-Dawley strain. Particulars: for Suppression % / Ulcer coefficient (mm) mean ± S.E.: 50 mg/kg oral, 1 hour before hydrochloric acid/ethanol, 8 animals, * p<0.05; for Ulcer coefficient (mm) mean ± S.E.: non-treated 78.4 ± 21.1. The method, then:
Male rats of Sprague-Dawley strain (supplied by Charles-River Co., SPE) weighing 220 to 280 g were fasted for 24 hours and employed in the experiment, whereby the rats were allowed free access to water for the first 22 hours, with no water being given for the remaining 2 hours. The test compound was suspended in 0.5% aqueous carboxymethylcellulose solution and the suspension was given to the test animals at a dose of 1 ml/200 g body weight, with the solvent alone being applied as a control at the same dose. Rats were treated by oral administration of hydrochloric acid/ethanol (containing 0.15 mole hydrochloric acid solution in 80% ethanol) at a dose of 1 ml/200 g body weight and sacrificed with ether 1 hour later, and the stomachs and duodena were isolated, followed by removal of the contents from the duodena. After the cardiac orifices were ligated, 2% formalin solution was injected in 8 ml portion into the stomachs through the duodenum, and the pyloric sphincters were ligated, followed by immersion into the same solution for 10 min to perform slight fixation (hereinafter referred to as "formalin treatment"). The stomachs were incised along the greater curvature, and individual injuries (erosions) generated in the glandular portion of each stomach were measured in length (mm) under microscope for anatomy (10 fold magnification), with the total sum per rat of measured injury lengths being calculated. The test compound was given to the animals orally 1 hour before administration of hydrochloric acid/ethanol.

Data set [2] has as its system Stomach injury through water-immersion constraint stress. Kind of data set: Anti-ulcer test (2): stomach injury through water-immersion constraint stress. Particulars: 50 mg/kg oral, immediately before stress-loading (23° C., 8 hours), 8 animals, * p<0.05; for Ulcer coefficient (mm) mean ± S.E.: non-treated 52.8 ± 9.8. In kind it is in vivo, Male rats of Sprague-Dawley strain. Here is the method: Male rats of Sprague-Dawley strain (supplied by Charles-River Co., SPE) weighing 220 to 280 g were fasted for 24 hours and employed in the experiment, whereby the rats were allowed free access to water for the first 22 hours, with no water being given for the remaining 2 hours. The test compound was suspended in 0.5% aqueous carboxymethylcellulose solution and the suspension was given to the test animals at a dose of 1 ml/200 g body weight, with the solvent alone being applied as a control at the same dose. The rats were stress-loaded by soaking the animals placed in a stress cage of Univ. of Tokyo type up to the xiphoid in a water tank at 23° C. and they were taken out of the tank 8 hours later and sacrificed with ether. The stomachs were isolated and treated with formalin, and individual injuries formed in the glandular portion of the stomach were measured in length (mm), with the total sum per rat of the measured injury lengths being calculated. The test compound was given to the test animals orally immediately before the stress-loading.

A short description of another data set: Solubility in water. The data set is classed as physicochemical.
For the next data set, the system named is mice. As to the kind of experiment: Acute toxicity test, oral. Particulars: 3 day observation. An excerpt: Male ddy strain mice (weighing 23 to 26 g) used in the experiment were divided into groups each consisting of 3 heads and treated by oral administration of the test compound suspended with powdered gum arabic, followed by observation for any abnormalities over a 3 day period to find the number of dead animals.

`NC[C@H]1CC[C@H](C(=O)Oc2ccc(CCC(=O)O)cc2)CC1` [Cetraxate hydrochloride]: in data set [1], the Suppression % came to 40.9% and the “Ulcer coefficient (mm) mean ± S.E.” value came out at 46.3 ± 7.6 mm. In data set [2], the Suppression % is reported as 39.4% and the “Ulcer coefficient (mm) mean ± S.E.” value is 32.0 ± 8.4 mm.

As for `NC[C@H]1CC[C@H](C(=O)O)CC1` [Tranexamic acid, tranexamic acid], the Suppression % is reported as 10.1% in data set [1] and 11.9% in data set [2]. Moreover, the “Ulcer coefficient (mm) mean ± S.E.” value in data set [1] worked out at 70.5 ± 20.1 mm; in data set [2], 46.5 ± 8.4 mm. The “effects in the anti-ulcer tests” value in data set [1] (conclusion in words from the test results) was “did not produce any marked effects”.

“L-malic acid salt of zinc tranexamate monohydrate”: in the data set “Solubility in water”, the “amount of compound dissolving in 2 ml of water” value came to 1 g.

Turning to zinc tranexamate monohydrate, the figures for the Suppression % in data set [1] and in data set [2] were 81.1% and 57.8%, respectively. The “Ulcer coefficient (mm) mean ± S.E.” value stood at 14.8 ± 4.5 mm in data set [1] and 22.3 ± 8.4 mm in data set [2]. Moreover, the “suppressory activity in the anti-ulcer test, compared with control, tranexamic acid and cetraxate hydrochloride” value in data set [1] (summary in words of the anti-ulcer tests (Tables 1 and 2)) is “improved suppressory activity as compared with the control, or tranexamic acid and cetraxate hydrochloride”. Moreover, the “Nd/No (No. of dead animals / total No. of experimental animals)” value in the data set on mice (600 mg/kg oral) and with mice (1,200 mg/kg oral) was 0/3 each time. The mortality result in the data set with mice (oral doses up to 1,200 mg/kg) was “did not cause any animal to die”.
